Source: patent US12298319B2, “Method for measuring alpha value of muscarinic M1 receptor positive allosteric modulators” (Takeda Pharmaceutical Company Limited, priority 2017, dated 2025)

Experiments:
M3R = M3R (Homo sapiens, UniProt P20309); assay: Ca2+ flux PAM activity against other muscarinic receptor subtypes, M3R; format: cell-based; settings: in the presence of EC20 ACh; read-out: PAM activity against other muscarinic receptor subtypes M3R pIP
M4R = target: T1, M4R (Homo sapiens, UniProt P08173); assay: Ca2+ flux PAM activity against other muscarinic receptor subtypes, M4R; format: cell-based; settings: in the presence of EC20 ACh; read-out: PAM activity against other muscarinic receptor subtypes M4R pIP (converted)
T1 sequence (P08173 1-479): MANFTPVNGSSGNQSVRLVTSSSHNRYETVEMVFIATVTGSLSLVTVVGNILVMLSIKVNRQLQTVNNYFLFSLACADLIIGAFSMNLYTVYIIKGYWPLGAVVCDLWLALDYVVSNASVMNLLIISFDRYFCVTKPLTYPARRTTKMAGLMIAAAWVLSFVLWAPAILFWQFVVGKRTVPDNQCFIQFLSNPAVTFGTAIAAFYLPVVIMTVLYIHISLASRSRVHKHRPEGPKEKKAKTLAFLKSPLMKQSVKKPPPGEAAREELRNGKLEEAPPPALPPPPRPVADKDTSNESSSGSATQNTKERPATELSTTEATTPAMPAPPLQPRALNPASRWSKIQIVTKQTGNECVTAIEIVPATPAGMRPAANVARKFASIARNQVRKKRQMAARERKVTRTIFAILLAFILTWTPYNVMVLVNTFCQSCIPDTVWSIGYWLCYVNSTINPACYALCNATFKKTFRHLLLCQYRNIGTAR

isolated mouse ileum = assay: In vitro Magnus assay, EFS-induced ileum contraction; settings: for Ileum contraction at 1 μM (% of cont.) Mean: isolated mouse ileum with EFS
Experimental: After overnight fasting, mice were sacrificed by decapitation. The ileum was quickly dissected out and suspended in ice-cold Krebs solution with the following composition (in mM): NaCl, 120.7; KCl, 5.9; CaCl2, 2.5; MgCl2, 1.2; […], 15.5; NaH2PO4, 1.2; and glucose, 11.5. Longitudinal segments of ileum (10-15 mm long) were detached of mesentery and adipose tissue, and mounted in organ baths containing 10 mL of Krebs solution aerated with 95% O2/5% CO2. Bath temperature was maintained at 37° C. The isolated ileum was given a passive load of 0.5 g. The contractile response of the isolated ileum was continuously recorded with isometric transducer (MLT050/A, ADInstruments, New South Wales, Australia) and recorder (PowerLab 8/30 ML870 and Octal Bridge Amp ML228, ADInstruments).
Platinum electrodes (3-20 mm apart, Iwashiya Kishimoto Medical Instruments, Kyoto, Japan) were mounted on both sides of the isolated ileum. The electrodes were connected to an electric stimulator (SEG-3104, Nihon Kohden, Tokyo, Japan) and an amplifier (SIG-3140, Nihon Kohden) for EFS with square wave pulses (20 V over the electrodes, 50 ms duration, and 20 Hz frequency); pulse trains were lasting for 10 s with 20 s pause.
The EFS produced sustained tonic contraction, followed by relaxation. The contraction was measured as the maximum strength from the baseline. The effects of experimental substances on the maximum contraction were measured. At the beginning of each experiment, a series of control EFS cycles was tested for more than 1 h to observe stability of contractile response. The ileum with a steady contractile response elicited by control EFS during the 1 h was used to investigate the effect of test compounds.
After responses to control EFS reached a steady-state, the compounds were added to the Magnus bath cumulatively, without washing between the subsequent doses. The interval between two adjacent doses was always at least 5 min, thus the isolated preparations receive at least 10 pulses in each dose of the compounds. After cumulating all doses of compounds, the bath was washed three times, and the ilea were allowed to rest for further 30 min. The effect of each concentration of the compounds on ileum contraction induced by EFS was calculated from the average value of 10 responses of the maximum strength. Then the ileum contractile response was expressed as a ratio (%) of the mean maximum contraction to that obtained with the pre-treated DMSO (solvent) to obtain concentration-response curve. Due to very small size of relaxations, the effects of the compounds on them was not be analyzed.

human M1R = target: T2, human M1R (Homo sapiens, UniProt P11229); assay: Binding modulation assay, displacement of [3H]-pirenzepine by ACh, FreeStyle 293 cell membranes; design: expressed in transfected cells; host or cells: FreeStyle 293 cells (transient), cell membranes; settings: for Kb: affinity of the PAM to the free M1R, read-out: pKB Mean (converted); for log α Mean / α-value: binding cooperativity between ACh and PAM
T2 sequence (P11229 1-460): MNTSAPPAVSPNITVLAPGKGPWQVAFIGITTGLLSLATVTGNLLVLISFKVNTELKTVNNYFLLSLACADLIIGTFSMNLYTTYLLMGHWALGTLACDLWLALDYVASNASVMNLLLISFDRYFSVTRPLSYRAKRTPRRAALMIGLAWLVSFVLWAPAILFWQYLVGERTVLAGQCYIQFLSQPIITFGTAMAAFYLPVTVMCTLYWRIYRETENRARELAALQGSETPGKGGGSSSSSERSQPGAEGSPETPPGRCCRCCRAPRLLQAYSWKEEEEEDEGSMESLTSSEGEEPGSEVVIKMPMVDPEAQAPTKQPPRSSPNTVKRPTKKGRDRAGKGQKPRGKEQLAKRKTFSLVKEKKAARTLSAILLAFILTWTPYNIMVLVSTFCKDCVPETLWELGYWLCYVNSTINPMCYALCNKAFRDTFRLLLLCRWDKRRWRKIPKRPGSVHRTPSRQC
Experimental: Binding assay was performed in 96-well plate format. Cell membranes from FreeStyle 293 cells transiently expressed human M1R were incubated with test compounds, ACh and 4 nM [^3H]-pirenzepine in an assay buffer (20 mM HEPES, 100 mM NaCl, 10 mM MgCl2, 0.1% fatty acid free BSA). After 2 h incubation at room temperature, cell membranes were transferred to GF/C filter plates (PerkinElmer, Massachusetts, USA) using cell-harvester (PerkinElmer) and washed 5 times with 300 μL of 50 mM Tris-HCl. Then, GF/C plates were dried at 42° C. 25 μL of microscint 0 (PerkinElmer) was added and the radioactivity was measured by Topcount (PerkinElmer). Non-specific bound was defined in the presence of 10 μM atropine.
All data were analyzed using GraphPad Prism 5 software (GraphPad Software Inc., California, USA). Radioligand binding data were globally fitted to the following allosteric ternary complex model:
[formula] where Y is the percentage of specific binding; [A], [B], and [C] are the concentrations of ACh, the allosteric modulator, and [^3H]-pirenzepine, respectively; KA, KB, and KC denote the equilibrium dissociation constants of ACh, the allosteric modulator, and [^3H]-pirenzepine, respectively; and αAB and […] are the cooperativities between the allosteric modulator and ACh or [^3H]-pirenzepine, respectively. […] The functional interactions between M1 PAMs and ACh were globally fitted to the following operational model of allosterism (Nat Rev Drug Discov. 2009; 8(1): 41-54 and Trends Pharmacol Sci. 2007; 28(8): 382-9)

M3R, sequence (P20309 whole entry): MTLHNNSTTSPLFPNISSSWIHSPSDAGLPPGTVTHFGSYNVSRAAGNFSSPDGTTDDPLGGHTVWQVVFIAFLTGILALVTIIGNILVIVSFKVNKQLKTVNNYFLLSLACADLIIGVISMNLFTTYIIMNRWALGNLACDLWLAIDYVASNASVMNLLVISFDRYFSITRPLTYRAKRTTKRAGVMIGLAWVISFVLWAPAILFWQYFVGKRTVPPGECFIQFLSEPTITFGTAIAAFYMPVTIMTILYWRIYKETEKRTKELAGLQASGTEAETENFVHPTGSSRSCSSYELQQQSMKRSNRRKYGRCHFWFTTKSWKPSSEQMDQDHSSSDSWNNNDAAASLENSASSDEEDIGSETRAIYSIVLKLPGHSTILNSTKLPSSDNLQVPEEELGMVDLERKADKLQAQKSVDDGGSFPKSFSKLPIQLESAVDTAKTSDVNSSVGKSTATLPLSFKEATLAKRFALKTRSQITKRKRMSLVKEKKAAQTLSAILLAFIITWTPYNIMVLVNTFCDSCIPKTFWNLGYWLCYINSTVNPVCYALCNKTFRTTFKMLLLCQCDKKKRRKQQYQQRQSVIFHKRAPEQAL

SMILES | EC50 (M3R) [µM] | EC50 (M4R) [µM] | augmentation of EFS-induced ileum contraction (isolated mouse ileum; 0.1 nM-1 μM) | Ileum contraction at 1 μM (% of cont.) Mean (isolated mouse ileum) | augmentation of EFS-induced ileum contraction with telenzepine (isolated mouse ileum; with 1 nM of telenzepine) | Kb (human M1R) [µM] | log α Mean (human M1R) | α-value (human M1R) | effect on EFS-induced ileum contraction (isolated mouse ileum; up to 1 μM)
Cn1ccc(-c2ccc(CN3Cc4cccc(O[C@H]5CCCC[C@@H]5O)c4C3=O)cc2)n1 [Compound A, 7-(((1S,2S)-2-hydroxycyclohexyl)oxy)-2-(4-(1-methyl-1H-pyrazol-3-yl)benzyl)isoindolin-1-one] | > 10 | 1 | concentration-dependent augmentation | 116 % of cont. | suppressed | 26.3 | 3.30 | 2371 | 
Cn1cc(-c2ccc(CN3Cc4cccc(Oc5c(F)cccc5C#N)c4C3=O)cc2)cn1 [Compound B, 3-fluoro-2-((2-(4-(1-methyl-1H-pyrazol-4-yl)benzyl)-3-oxo-2,3-dihydro-1H-isoindol-4-yl)oxy)benzonitrile] | > 10 | > 10 |  | 97 % of cont. |  | 0.977 | 1.18 | 16 | no effect
Cn1cc(-c2ccc(Cc3cc4c(=O)n([C@H]5CCCC[C@@H]5O)cnc4c4ccccc34)cn2)cn1 [Compound C, 3-((1S,2S)-2-hydroxycyclohexyl)-6-((6-(1-methyl-1H-pyrazol-4-yl)pyridin-3-yl)methyl)benzo[h]quinazoline-4(3H)-one, reference compound] | > 10 | > 10 |  | 104 % of cont. |  | 0.288 | 3.25 | 1786 | 
Cc1c(Cc2ccc(-n3cccn3)cc2)cc2c(c1F)CN([C@H]1COCC[C@@H]1O)C2=O [Compound D, 4-fluoro-2-[(3S,4S)-4-hydroxytetrahydro-2H-pyran-3-yl]-5-methyl-6-[4-(1H-pyrazol-1-yl)benzyl]-2,3-dihydro-1H-isoindol-1-one] |  |  |  |  |  |  |  | 199 | 
O=c1c2cn(Cc3ccc(-n4cccn4)cc3)c3ccccc3c-2nn1-c1ccccc1F [Compound E, 2-(2-fluorophenyl)-5-(4-(1H-pyrazol-1-yl)benzyl)-2,5-dihydro-3H-pyrazolo[4,3-c]quinolin-3-one, reference compound] | > 10 | > 10 |  | 106 % of cont. |  | 3.09 | 2.67 |  | 
Cn1cc(-c2ccc(CN3Cc4cccc(OCCN5CCCCC5)c4C3=O)cc2)cn1 [Compound F, 2-(4-(1-methyl-1H-pyrazol-4-yl)benzyl)-7-(2-(piperidin-1-yl)ethoxy)isoindolin-1-one] | > 10 | > 10 |  | 102 % of cont. |  | 9.12 | 1.54 |  | 
Cn1cc(-c2ccc(CN3Cc4cccc(-c5ccn[nH]5)c4C3=O)cc2)cn1 [Compound G, 2-(4-(1-methyl-1H-pyrazol-4-yl)benzyl)-7-(1H-pyrazol-5-yl)isoindolin-1-one] | > 10 | > 10 |  | 93 % of cont. |  | 14.8 | 0.56 |  | 
